ChEMBL document CHEMBL4346695, “Thiophenol-formaldehyde triazole causes apoptosis induction in ovary cancer cells and prevents tumor growth formation in mice model” (2019)
The source made the active and inactive calls.

Tests used:
[1] = system: Caov-3 cell line; experiment: Growth inhibition of human Caov3 cells incubated for 48 hrs by MTT assay; type: functional, cell-based
[2] = organism: Homo sapiens; experiment: Growth inhibition of human ES2 cells incubated for 48 hrs by MTT assay; type: functional
[3] = system: Caov-4; experiment: Growth inhibition of human Caov4 cells incubated for 48 hrs by MTT assay; type: functional, cell-based

Measured: growth inhibition (GI)

FC(F)(F)c1ccccc1-n1cc(COCc2ccccc2S)nn1
active: all assays above
